Earlier results in patent publication US9693945B1, “Method of solubilizing a composition of a cleaned photochromic dye suitable for use on human skin” (priority 2016, dated 2017).

Tested on: Salmonella typhimurium
Details: background on compounds formerly used in commercial products

SMILES | Ames test outcome (identified as potential carcinogen)
NC(=O)/C(=C\c1ccc([N+](=O)[O-])o1)c1ccco1 [furylfuramide] | positive
O=P(OCC(Br)CBr)(OCC(Br)CBr)OCC(Br)CBr (centres unmarked) [tris (2,3-dibromopropyl) phosphate] | positive
